# Experimental data from ChEMBL document CHEMBL1132030, “Photoactivatable peptides based on BMS-197525: a potent antagonist of the human thrombin receptor (PAR-1)” (Bioorg Med Chem Lett, 1999).
# Where a SMILES comes first, the peptide text is derived from it. [ ]: non-standard residue; d: D form. The star is where a group is joined. Phe(4-guanidino) = N=C(N)Nc1ccc(C[C@H](N)C(=O)O)cc1; Bpa = N[C@@H](Cc1ccc(C(=O)c2ccccc2)cc1)C(=O)O; Phe(4-F) = N[C@@H](Cc1ccc(F)cc1)C(=O)O; NBD = O=[N+]([O-])c1ccc(*)c2nonc12; Orn = NCCC[C@H](N)C(=O)O; X2 = O=C(/C=C/c1ccccc1)*
# Target: T1, Proteinase-activated receptor 1 (Homo sapiens, UniProt P25116)
# T1 sequence (P25116 whole entry): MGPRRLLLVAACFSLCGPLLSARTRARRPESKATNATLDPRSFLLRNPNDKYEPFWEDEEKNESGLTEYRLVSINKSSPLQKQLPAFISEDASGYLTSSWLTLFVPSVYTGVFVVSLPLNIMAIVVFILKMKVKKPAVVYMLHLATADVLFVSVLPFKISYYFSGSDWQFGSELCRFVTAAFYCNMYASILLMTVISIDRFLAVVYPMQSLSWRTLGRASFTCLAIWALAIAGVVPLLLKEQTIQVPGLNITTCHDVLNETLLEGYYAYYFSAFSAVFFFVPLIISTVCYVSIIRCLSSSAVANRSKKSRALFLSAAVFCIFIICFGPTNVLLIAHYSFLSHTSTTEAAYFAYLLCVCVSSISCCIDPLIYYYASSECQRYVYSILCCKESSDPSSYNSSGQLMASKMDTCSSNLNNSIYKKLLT
# Assay: Human Thrombin receptor 1 (PAR-1) antagonistic ability to inhibit SFLLRN-NH2 (2.7 uM)-induced platelet aggregation; Not active at 110 uM concentration; call rule not given here
# Format: functional
smiles,measurement,value
CC(C)C[C@H](NC(=O)[C@H](Cc1ccc(NC(=N)N)cc1)NC(=O)[C@H](Cc1ccc(F)cc1)NC(=O)/C=C/c1ccccc1)C(=O)N[C@@H](Cc1ccc(C(=O)c2ccccc2)cc1)C(=O)N[C@@H](CCCNc1ccc([N+](=O)[O-])c2nonc12)C(=O)O (X2-[Phe(4-F)][Phe(4-guanidino)]L[Bpa][Orn](NBD)-OH),IC50,Not Active
